pIC50: −log10 of the molar value.
tested on: PDE4; assay: Evaluation of PDE4 inhibitory activity, scintillation proximity assay; type: biochemical; settings: scintillation proximity assay; class symbols of Evaluation 1; read-out: PDE4 Inhibitory Activity (concentration for the inhibition rate of 50%, IC50), Evaluation 1
Protocol: The BDE4 inhibitory activity was measured using scintillation proximity assay (SPA) as follows. First, a test compound dissolved in dimethyl sulfoxide was diluted 1:10 in reaction buffer solution which contained 50 mM of Tris-HCl with pH 7.4, 8.3 mM of MgCl2, 1.7 mM of EGTA, and 3 mg/mL of bovine serum albumin (BSA). Then, 10 μL of the diluted solution was added in a 96-well assay plate. Moreover, 50 μL of PDE4 (enzyme preparation) diluted 1:375 in the reaction buffer solution was added, and then 40 μL of [2,8-^3H]-adenosine-3′,5′-cyclic phosphate triethylammonium salt diluted 1:1000 in the reaction buffer solution was added. The mixture was allowed to stand at room temperature for 120 minutes. Thereafter, […] of RNA binding YSi-SPA beads suspension containing ZnSO4 was added and the mixture was allowed to stand at room temperature for 15 minutes, followed by adsorption of the enzyme reaction product to the beads. After that, the radioactivity was measured using a liquid scintillation counter for a 96-well plate. The mixture without the enzyme preparation added but only the reaction buffer solution added is a blank, and the mixture with the enzyme preparation added and only dimethyl sulfoxide added instead of the test compound is a control.
In addition, the PDE4 inhibitory activity (concentration that inhibits PDE4 activity by 50%=concentration for the inhibition rate of 50% (IC50)) of the test compound was calculated from the inhibition curves based on the inhibition rates for various concentrations of the test compound.

Structure (SMILES) | pIC50
CC(C)c1cc(-c2nccs2)c2oc(N3CC4CCC(C3)N4)nc2c1 [Example 21, 2-(3,8-Diazabicyclo[3.2.1]octan-3-yl)-5-isopropyl-7-(thiazol-2-yl)benzo[d]oxazole] | > 7.00
OC(c1ccc(-c2nccs2)c2oc(N3CC4CCC(C3)N4)nc12)C(F)F (centres unmarked) [Example 128, 1-(2-(3,8-Diazabicyclo[3.2.1]octan-3-yl)-7-(thiazol-2-yl)benzo[d]oxazol-4-yl)-2,2-difluoroethan-1-ol] | > 7.00
CCOC(=O)c1ccc(-c2nccs2)c2oc(N3CC4CCCC(C3)N4)nc12 [Example 114, Ethyl 2-(3,9-diazabicyclo[3.3.1]nonan-3-yl)-7-(thiazol-2-yl)benzo[d]oxazole-4-carboxylate] | > 7.00
FC(F)(F)c1c(Cl)cc(-n2cccn2)c2oc(N3CC4CCC(C3)N4)nc12 [Example 15, 2-(3,8-Diazabicyclo[3.2.1]octan-3-yl)-5-chloro-7-(1H-pyrazol-1-yl)-4-(trifluoromethyl)benzo[d]oxazole] | > 7.00
OC(c1cc(-n2cccn2)c2oc(N3CC4CCC(C3)N4)nc2c1)C(F)(F)F (centres unmarked) [Example 140, 1-(2-(3,8-Diazabicyclo[3.2.1]octan-3-yl)-7-(1H-pyrazol-1-yl)benzo[d]oxazol-5-yl)-2,2,2-trifluoroethan-1-ol] | > 7.00
CC(O)(c1cc(-c2nccs2)c2oc(N3CC4CCCC(C3)N4)nc2c1)C(F)(F)F (centres unmarked) [Example 161, 2-(2-(3,9-Diazabicyclo[3.3.1]nonan-3-yl)-7-(thiazol-2-yl)benzo[d]oxazol-5-yl)-1,1,1-trifluoropropan-2-ol] | > 7.00
COC(c1ccc(-c2nccs2)c2oc(N3CC4CC(C3)N4)nc12)C(F)(F)F (centres unmarked) [Example 123, 2-(3,6-Diazabicyclo[3.1.1]heptan-3-yl)-7-(thiazol-2-yl)-4-(2,2,2-trifluoro-1-methoxyethyl)benzo[d]oxazole] | > 7.00
COc1cc(-c2nccs2)c2oc(N3CC4CCC(C3)N4)nc2c1 [Example 60, 2-(3,8-Diazabicyclo[3.2.1]octan-3-yl)-5-methoxy-7-(thiazol-2-yl)benzo[d]oxazole] | > 7.00
COCCOc1cc(-c2nccs2)c2oc(N3CC4CCC(C3)N4)nc2c1 [Example 69, 2-(3,8-Diazabicyclo[3.2.1]octan-3-yl)-5-(2-methoxyethoxy)-7-(thiazol-2-yl)benzo[d]oxazole] | > 7.00
CC(C)(O)COC(c1ccc(-c2nccs2)c2oc(N3CC4CC(C3)N4)nc12)C(F)F (centres unmarked) [Example 127, 1-(1-(2-(3,6-Diazabicyclo[3.1.1]heptan-3-yl)-7-(thiazol-2-yl)benzo[d]oxazol-4-yl)-2,2-difluoroethoxy)-2-methylpropan-2-ol] | > 7.00
FC(F)(F)c1ccc(-c2nccs2)c2oc(N3CC4CCCC(C3)N4)nc12 [Example 33, 2-(3,9-Diazabicyclo[3.3.1]nonan-3-yl)-7-(thiazol-2-yl)-4-(trifluoromethyl)benzo[d]oxazole] | > 7.00
CC(C)(O)c1cc(-c2nccs2)c2oc(N3CC4CCCC(C3)N4)nc2c1C(F)(F)F [Example 166, 2-(2-(3,9-Diazabicyclo[3.3.1]nonan-3-yl)-7-(thiazol-2-yl)-4-(trifluoromethyl)benzo[d]oxazol-5-yl)propan-2-ol] | > 7.00
N#CCOC(c1cc(-c2nccs2)c2oc(N3CC4CC(C3)N4)nc2c1)C(F)(F)F (centres unmarked) [Example 152, 2-(1-(2-(3,6-Diazabicyclo[3.1.1]heptan-3-yl)-7-(thiazol-2-yl)benzo[d]oxazol-5-yl)-2,2,2-trifluoroethoxy)acetonitrile] | > 7.00
CC(O)c1cc(-c2nccs2)c2oc(N3CC4CCC(C3)N4)nc2c1 (centres unmarked) [Example 106, 1-(2-(3,8-Diazabicyclo[3.2.1]octan-3-yl)-7-(thiazol-2-yl)benzo[d]oxazol-5-yl)ethan-1-ol] | > 7.00
c1csc(-c2ccc(-c3nccs3)c3oc(N4CC5CCC(C4)N5)nc23)n1 [Example 85, 2-(3,8-Diazabicyclo[3.2.1]octan-3-yl)-4,7-di(thiazol-2-yl)benzo[d]oxazole] | > 7.00
COC(C)c1cc(-c2nccs2)c2oc(N3CC4CC(C3)N4)nc2c1 (centres unmarked) [Example 111, 2-(3,6-Diazabicyclo[3.1.1]heptan-3-yl)-5-(1-methoxyethyl)-7-(thiazol-2-yl)benzo[d]oxazole] | > 7.00
OC(O)(c1cc(-c2nccs2)c2oc(N3CC4CCCC(C3)N4)nc2c1)C(F)(F)F [Example 156, 1-(2-(3,9-Diazabicyclo[3.3.1]nonan-3-yl)-7-(thiazol-2-yl)benzo[d]oxazol-5-yl)-2,2,2-trifluoroethane-1,1-diol] | > 7.00
FC(F)(F)COC(c1cc(-c2nccs2)c2oc(N3CC4CC(C3)N4)nc2c1)C(F)(F)F (centres unmarked) [Example 151, 2-(3,6-Diazabicyclo[3.1.1]heptan-3-yl)-7-(thiazol-2-yl)-5-(2,2,2-trifluoro-1-(2,2,2-trifluoroethoxy)ethyl)benzo[d]oxazole] | > 7.00
CC(C)(O)c1cc(-c2nccs2)c2oc(N3CC4CC(C3)N4)nc2c1C(F)(F)F [Example 178, 2-(2-(3,6-Diazabicyclo[3.1.1]heptan-3-yl)-7-(thiazol-2-yl)-4-(trifluoromethyl)benzo[d]oxazol-5-yl)propan-2-ol] | > 7.00

same assay, conditions: scintillation proximity assay; read-out: PDE4 Inhibitory Activity (Evaluation 1; concentration for the inhibition rate of 50%)

Structure (SMILES) | pIC50
CN(CCO)C(=O)C(F)(F)Oc1ccc(-c2nccs2)c2oc(N3CC4CC(C3)N4)nc12 [Example 407, 2-((2-(3,6-Diazabicyclo[3.1.1]heptan-3-yl)-7-(thiazol-2-yl)benzo[d]oxazol-4-yl)oxy)-2,2-difluoro-N-(2-hydroxyethyl)-N-methylacetamide] | > 7.00
CC(C)(O)c1cc(-c2nccs2)c2oc(N3CC4CC(C3)N4)nc2c1OC(F)(F)F [Example 196, 2-(2-(3,6-Diazabicyclo[3.1.1]heptan-3-yl)-7-(thiazol-2-yl)-4-(trifluoromethoxy)benzo[d]oxazol-5-yl)propan-2-ol] | > 7.00
COC(C)c1cc(-c2nccs2)c2oc(N3CC4CCC(C3)N4)nc2c1OC(F)(F)F (centres unmarked) [Example 210, 2-(3,8-Diazabicyclo[3.2.1]octan-3-yl)-5-(1-methoxyethyl)-7-(thiazol-2-yl)-4-(trifluoromethoxy)benzo[d]oxazole] | > 7.00
CC(C)(O)C(F)(F)Oc1ccc(-c2ncco2)c2oc(N3CC4CC(C3)N4)nc12 [Example 290, 1-((2-(3,6-Diazabicyclo[3.1.1]heptan-3-yl)-7-(oxazol-2-yl)benzo[d]oxazol-4-yl)oxy)-1,1-difluoro-2-methylpropan-2-ol] | > 7.00
OC(c1cc(-c2nccs2)c2oc(N3CC4CCC(C3)N4)nc2c1OC(F)(F)F)C(F)F (centres unmarked) [Example 206, 1-(2-(3,8-Diazabicyclo[3.2.1]octan-3-yl)-7-(thiazol-2-yl)-4-(trifluoromethoxy)benzo[d]oxazol-5-yl)-2,2-difluoroethan-1-ol] | > 7.00
CCOC(c1ccc(-c2nccs2)c2oc(N3CC4CCC(C3)N4)nc12)C(F)(F)F (centres unmarked) [Example 220, 2-(3,8-Diazabicyclo[3.2.1]octan-3-yl)-4-(1-ethoxy-2,2,2-trifluoroethyl)-7-(thiazol-2-yl)benzo[d]oxazole] | > 7.00
FC(F)(F)COC(c1ccc(-c2nccs2)c2oc(N3CC4CC(C3)N4)nc12)C(F)(F)F (centres unmarked) [Example 223, 2-(3,6-Diazabicyclo[3.1.1]heptan-3-yl)-7-(thiazol-2-yl)-4-(2,2,2-trifluoro-1-(2,2,2-trifluoroethoxy)ethyl)benzo[d]oxazole] | > 7.00
CN(CCO)S(=O)(=O)c1ccc(-c2nccs2)c2oc(N3CC4CC(C3)N4)nc12 [Example 389, 2-(3,6-Diazabicyclo[3.1.1]heptan-3-yl)-N-(2-hydroxyethyl)-N-methyl-7-(thiazol-2-yl)benzo[d]oxazole-4-sulfonamide] | > 7.00
CC(C)(O)c1cc(-c2nccs2)c2oc(N3CC4CCCC(C3)N4)nc2c1OC(F)(F)F [Example 197, 2-(2-(3,9-Diazabicyclo[3.3.1]nonan-3-yl)-7-(thiazol-2-yl)-4-(trifluoromethoxy)benzo[d]oxazol-5-yl)propan-2-ol] | > 7.00
CC(O)c1cc(-c2nccs2)c2oc(N3CC4CCC(C3)N4)nc2c1C(F)(F)F (centres unmarked) [Example 181, 1-(2-(3,8-Diazabicyclo[3.2.1]octan-3-yl)-7-(thiazol-2-yl)-4-(trifluoromethyl)benzo[d]oxazol-5-yl)ethan-1-ol] | > 7.00
CC(O)(c1ccc(-c2nccs2)c2oc(N3CC4CCC(C3)N4)nc12)C(F)(F)F (centres unmarked) [Example 236, 2-(2-(3,8-Diazabicyclo[3.2.1]octan-3-yl)-7-(thiazol-2-yl)benzo[d]oxazol-4-yl)-1,1,1-trifluoropropan-2-ol] | > 7.00
CC(=O)c1ccc(-c2nccs2)c2oc(N3CC4CCC(C3)N4)nc12 [Example 245, 1-(2-(3,8-Diazabicyclo[3.2.1]octan-3-yl)-7-(thiazol-2-yl)benzo[d]oxazol-4-yl)ethan-1-one] | > 7.00
N#CCOC(c1ccc(-c2nccs2)c2oc(N3CC4CC(C3)N4)nc12)C(F)(F)F (centres unmarked) [Example 226, 2-(1-(2-(3,6-Diazabicyclo[3.1.1]heptan-3-yl)-7-(thiazol-2-yl)benzo[d]oxazol-4-yl)-2,2,2-trifluoroethoxy)acetonitrile] | > 7.00

— patent US12239643B2, “Therapeutic agent for inflammatory diseases, autoimmune diseases, fibrotic diseases, and cancer diseases” (MEIJI SEIKA PHARMA CO., LTD., priority 2018, dated 2025)
